Some results are limits rather than exact numbers.

For assay [1], the system named is IL-17A. Kind of assay: TH17 cytokine inhibition measured by ELISA (IL-17A). The format is cell-based. The conditions noted are these: 120 h; human TH17 cells, 5 days differentiation, ELISA of supernatants, 0.1% DMSO. How it is done:
(§1) Peripheral blood mononuclear cells (PBMCs) were sourced from freshly prepared leukocyte enriched plasma (buffy coat) from healthy volunteers from which PBMCs were isolated by density gradient centrifugation using Ficoll-Paque™ PLUS (GE Healthcare). Naïve CD4+ T cells were isolated using the Naïve CD4+ T cell Isolation Kit II (Miltenyi Biotec) as per manufacturer's instructions. CD4+ T cells were plated at 5×10^4 cells/well in 96 well plates pre-coated with immobilized human (h)-αCD3 antibody (eBioscience) then differentiated to TH17 cells using h-αCD28, h-αIFN-γ, h-αIL-4, h-IL-6, h-IL-23, h-IL-1β, h-TGF-β1 (eBioscience) and maintained in a cell culture incubator at 37° C. with 5% CO2 in TexMACS Medium (Miltenyi Biotec) supplemented with 1% Penicillin/Streptomycin (Lonza) over 5 days.
(§2) Human CD4+ T cells were differentiated to TH17 cells as described in the presence or absence of various concentrations of compounds in a final concentration of 0.1% DMSO in TexMACS medium. Supernatants were collected and stored at −20° C. until they were to be assayed for IL-17A, IL-17F, IL-17AF, IL-21 and/or IL-22 levels as determined by Ready-Set-Go ELISA kits (eBioscience) as per manufacturer's instructions. Endpoint absorbance was read at 450 nm and 570 nm according to manufacturer's instructions (eBioscience) using a microplate reader (Perkin Elmer). The percentage of cytokine inhibition was calculated with reference to DMSO treated cells and the IC50s were determined by GraphPad Prism software and presented in the table below.

Assay [2] relates to IL-17AF. Kind of assay: TH17 cytokine inhibition measured by ELISA (IL-17AF). The format is cell-based. The conditions noted are these: 120 h; human TH17 cells, 5 days differentiation, ELISA of supernatants, 0.1% DMSO. As to the method:
as §1, §2
A general note: In an ELISA, binding on a coated surface is turned into a signal by an enzyme label.

For assay [3], the system named is IL-21. Kind of assay: TH17 cytokine inhibition measured by ELISA (IL-21). The format is cell-based. The conditions noted are these: 120 h; human TH17 cells, 5 days differentiation, ELISA of supernatants, 0.1% DMSO. As to the method:
as §1, §2

For assay [4], the system named is IL-17A. Kind of assay: Real-Time qRT-PCR gene expression in TH17 cells (IL-17A). As to conditions: normalized to six reference genes. The format is cell-based, human. The arrangement: key: A: No change in gene expression observed relative to DMSO treated Th17 cells; B: Decreased gene expression observed relative to DMSO treated Th17 cells; C: Increased gene expression observed relative to DMSO treated Th17 cells. As to the method:
as §1
(§3) RNA was isolated from TH17 cells and cDNA was synthesized using the Verso cDNA kit (Thermo Scientific) as per manufacturer's instructions. IL-17A, IL-17F, IL-21, IL-22, G-CSF, IL-23R and FOXP3 gene expression were determined for compound treated and untreated TH17 cell samples using Solaris qPCR Gene expression assays (Thermo Scientific) with an iCycler iQ Real-Time PCR Detection System (Bio-Rad). Individual gene expression was normalized to a panel of six reference genes (ACTB, TBP, HPRT1, PGK1, TFRC and PPIA) (Thermo Scientific) and analyzed by REST 2009 (Qiagen) in accordance to MIQE guidelines (Bustin et al. (2009) Clin. Chem, 55:611-622). The effects of compounds on TH17 cytokine gene expression are presented as fold change in mRNA levels of compound treated TH17 cells relative to DMSO treated cells in the table below.

For assay [5], the system named is IL-17F. Kind of assay: Real-Time qRT-PCR gene expression in TH17 cells (IL-17F). The format is cell-based, human. Further details: key: A: No change in gene expression observed relative to DMSO treated Th17 cells; B: Decreased gene expression observed relative to DMSO treated Th17 cells; C: Increased gene expression observed relative to DMSO treated Th17 cells. As to conditions: normalized to six reference genes. How it is done: as §1, §3
Background: Real-time PCR tracks product formation cycle by cycle.

On to `Cc1cc(-c2ccc3c(c2)CCCN3Cc2ccc(C(O)(C(F)(F)F)C(F)(F)F)cc2)[nH]n1` [Example 1, 1,1,1,3,3,3-hexafluoro-2-(4-((6-(3-methyl-1H-pyrazol-5-yl)-3,4-dihydroquinolin-1(2H)-yl)methyl)phenyl)propan-2-ol], for which the 50% inhibitory concentration (IC50) in assay [1], in assay [2] and in assay [3] was less than 10 µM each time. The “Fold change in mRNA levels of compound treated TH17 cells relative to DMSO treated cells, IL-17A” value in assay [4] is recorded as “A”. The “Fold change in mRNA levels of compound treated TH17 cells relative to DMSO treated cells, IL-17F” value in assay [5] was “B”.

As to `O=C1CCc2cc(-c3cn[nH]c3)ccc2N1Cc1ccc(C(O)(C(F)(F)F)C(F)(F)F)cc1` [Example 5, 1-(4-(1,1,1,3,3,3-hexafluoro-2-hydroxypropan-2-yl)benzyl)-6-(1H-pyrazol-4-yl)-3,4-dihydroquinolin-2(1H)-one], the IC50 in assay [1], in assay [2] and in assay [3] was less than 10 µM throughout. The “Fold change in mRNA levels of compound treated TH17 cells relative to DMSO treated cells, IL-17A” value in assay [4] is reported as “A”. In addition, the “Fold change in mRNA levels of compound treated TH17 cells relative to DMSO treated cells, IL-17F” value in assay [5] is reported as “A”.

Molecule `Cc1cc(-c2ccc3c(c2)CCC(=O)N3Cc2ccc(C(O)(C(F)(F)F)C(F)(F)F)cc2)[nH]n1` [Example 4, 1-(4-(1,1,1,3,3,3-hexafluoro-2-hydroxypropan-2-yl)benzyl)-6-(3-methyl-1H-pyrazol-5-yl)-3,4-dihydroquinolin-2(1H)-one] had an IC50 in assay [1] of less than 10 µM. The “Fold change in mRNA levels of compound treated TH17 cells relative to DMSO treated cells, IL-17A” value in assay [4] was “B”. The “Fold change in mRNA levels of compound treated TH17 cells relative to DMSO treated cells, IL-17F” value in assay [5] is “B”.

Consider `Cc1n[nH]c(-c2ccc3c(c2)CCCN3Cc2ccc(C(O)(C(F)(F)F)C(F)(F)F)cc2)n1` [Example 3, 1,1,1,3,3,3-hexafluoro-2-(4-((6-(3-methyl-1H-1,2,4-triazol-5-yl)-3,4-dihydroquinolin-1(2H)-yl)methyl)phenyl)propan-2-ol], for which the IC50 in assay [1], in assay [2] and in assay [3] was less than 10 µM each time. For the same molecule, the “Fold change in mRNA levels of compound treated TH17 cells relative to DMSO treated cells, IL-17A” value in assay [4] is “B”. In addition, in assay [5], the “Fold change in mRNA levels of compound treated TH17 cells relative to DMSO treated cells, IL-17F” value is “B”.

As for `Cc1n[nH]c(-c2ccc3c(c2)CCC(=O)N3Cc2ccc(C(O)(C(F)(F)F)C(F)(F)F)cc2)n1` [Example 6, 1-(4-(1,1,1,3,3,3-hexafluoro-2-hydroxypropan-2-yl)benzyl)-6-(3-methyl-1H-1,2,4-triazol-5-yl)-3,4-dihydroquinolin-2(1H)-one], the IC50 in assay [1] is less than 10 µM. The “Fold change in mRNA levels of compound treated TH17 cells relative to DMSO treated cells, IL-17A” value in assay [4] is on record as “B”. The “Fold change in mRNA levels of compound treated TH17 cells relative to DMSO treated cells, IL-17F” value in assay [5] was “B”.

Take `OC(c1ccc(CN2CCCc3cc(-c4cn[nH]c4)ccc32)cc1)(C(F)(F)F)C(F)(F)F` [Example 2, 2-(4-((6-(1H-pyrazol-4-yl)-3,4-dihydroquinolin-1(2H)-yl)methyl)phenyl)-1,1,1,3,3,3-hexafluoropropan-2-ol]: the IC50 in assay [1], in assay [2] and in assay [3] was less than 10 µM in each case. Further, in assay [4], the “Fold change in mRNA levels of compound treated TH17 cells relative to DMSO treated cells, IL-17A” value is “B”. Also, the “Fold change in mRNA levels of compound treated TH17 cells relative to DMSO treated cells, IL-17F” value in assay [5] is listed as “B”.

In general, IC50 refers to the concentration that inhibits the measured activity by half.

Source of the values: patent publication US9447069B2, “ROR modulators and their uses” (INNOV17 LLC, priority 2012, dated 2016).
